Results reported in ChEMBL document CHEMBL1150500, “Epoxidation of 6,7- and 10,11-oxidosqualenes by the squalene epoxidase present in rat liver microsomes” (Bioorg Med Chem Lett, 1993).

The molecules below were run against Squalene monooxygenase (Rattus norvegicus, UniProt P52020) (assay: Compound was tested for its inhibitory activity against squalene epoxidase from rat liver microsomes).
Squalene monooxygenase, sequence (P52020 whole entry): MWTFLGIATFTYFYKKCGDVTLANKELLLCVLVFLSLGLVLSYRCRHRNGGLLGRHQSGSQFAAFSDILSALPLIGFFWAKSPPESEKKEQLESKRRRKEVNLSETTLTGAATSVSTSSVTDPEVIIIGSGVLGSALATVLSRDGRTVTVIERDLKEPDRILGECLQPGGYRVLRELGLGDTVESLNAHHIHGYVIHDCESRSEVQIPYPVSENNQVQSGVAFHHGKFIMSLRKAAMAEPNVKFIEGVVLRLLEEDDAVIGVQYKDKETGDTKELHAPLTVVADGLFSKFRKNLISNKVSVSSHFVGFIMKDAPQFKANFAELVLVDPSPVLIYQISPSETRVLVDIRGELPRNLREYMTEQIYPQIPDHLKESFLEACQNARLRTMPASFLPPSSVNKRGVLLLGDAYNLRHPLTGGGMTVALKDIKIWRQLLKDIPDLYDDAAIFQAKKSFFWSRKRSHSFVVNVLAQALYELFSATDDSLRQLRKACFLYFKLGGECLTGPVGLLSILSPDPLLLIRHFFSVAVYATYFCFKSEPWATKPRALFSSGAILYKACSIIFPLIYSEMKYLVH

Row | IC50 | SMILES
1 | 31.8 µM | CC(C)=CCC/C(C)=C/CC/C(C)=C/CC/C=C(\C)CCC1OC1(C)CCC=C(C)C (centres undefined)
2 | 13 µM | CC(C)=CCC/C(C)=C/CC/C(C)=C/CCC1OC1(C)CC/C=C(\C)CC[C@@H]1OC1(C)C (some centres undefined)
3 | 50.9 µM | CC(C)=CCC/C(C)=C/CC/C(C)=C/CCC1OC1(C)CC/C=C(\C)CCC=C(C)C (centres undefined)
4 | 0.11 µM | CC(C)=CCCC1(C)OC1CC/C(C)=C/CC/C=C(\C)CC/C=C(\C)CC[C@@H]1OC1(C)C (some centres undefined)
